{"source": "patent US9701729B2", "about": "“Peptide having 5 linked CTL epitopes” (TAIHO PHARMACEUTICAL CO., LTD., priority 2013, dated 2017)", "key": {"[1]": {"tested_on": "CTL epitope peptide specific IgG antibody", "assay": "Measurement of CTL-epitope specific IgG antibody titer in mouse serum (peptide-immobilized beads, Bio-Plex)", "type": "in vivo, CBF1 mice (C57BL/6×Balb/c F1)", "details": "emulsion with IFA, 100 μl weekly, three times; serum 1 week after final administration; compared with the IFA group", "procedure": "Peptides were immobilized onto xMAP Multi-Analyte COOH Microspheres (Luminex Corporation; hereafter referred to as “beads”) in the manner described below. The beads were washed with MES buffer (0.1 M MES-NaOH; pH 7.0), the supernatant was removed by centrifugation. This washing process was repeated twice and the beads were then suspended in 75 μl of MES buffer. 100 μl of CTL epitope peptide solution (1 mg/ml), and 5 μl of 10 mg/ml EDC (1-ethyl-3-(3-dimethylaminopropyl)carbodiimide hydrochloride) solution was added into beads suspension then mixed well. Thereafter, the reaction was performed at 30° C. in the dark overnight. After the removal of supernatant by centrifugation on the following day, 125 μl of 1 M Tris-HCl was added, and incubation was carried out at 30° C. in the dark for 30 minutes. After the supernatant was removed again, the beads were washed twice with wash buffer (PBS(-), 0.05% Tween 20) and were suspended in Immunoblock (DS Pharma Biomedical Co., Ltd.). […]\nThe CTL epitope peptide-immobilized beads diluted with Immunoblock were dispensed into wells of a 96-well filter plate. […] After the three times of plate washing with a wash buffer, 100 μl of wash buffer was added into each well to suspend beads, and the mean fluorescence intensity of PE which specifically bound to relevant beads was measured using the Bio-Plex Suspension Array System (BIO-RAD). […]"}, "[2]": {"tested_on": "CTL epitope peptide specific CTL", "assay": "Induction of epitope peptide specific CTLs in mouse model, detection by IFN-γ ELISPOT", "type": "in vivo, mice (HLA-A2.1 transgenic and HLA-A24 transgenic mice)", "details": "emulsion with IFA, 100 μl weekly at base of tail, twice; inguinal lymph node cells 1 week after final administration; positive = spots significantly above negative control peptide (p<0.05)", "procedure": "The peptides having 5 linked epitopes were dissolved in Otsuka distilled water (Otsuka Pharmaceutical Factory Inc.) at 2 mg/ml or 4 mg/ml, and the resulting solution was filled into the B Braun Injekt syringe. After the equivalent amount of Incomplete Freund's adjuvant (IFA) was filled into another syringe, these syringes were connected to each other using a GP syringe connector, and a solution of the peptides having 5 linked epitopes was thoroughly mixed with IFA to prepare an emulsion. The emulsion was weekly administered in amounts of 100 μl each in the vicinity of base of tail of mice (HLA-A2.1 transgenic and HLA-A24 transgenic mice (Taconic)), and administrations were carried out twice in total. Inguinal lymph nodes were corrected from mice 1 week after the final administration. […] The number of IFN-γ-producing cell spots was quantified using an ELISPOT analyzer (Immunospot S6, Cellular Technology Ltd.). […]"}}}
{"substance": "PEP2-RR-PEP3-RR-PEP4-RR-PEP5-RR-PEP7 (ASLDSDPWVRRLLQAEAPRLRRDYSARWNEIRRVYDYNCHVDLRRQIRPIFSNR) [TPV17]", "values": [{"measurement": "induction of CTL epitope specific IgG antibody production", "setting": "[1]", "result": "multiple CTL epitope specific IgG antibodies production was not induced"}]}
{"substance": "PEP7-RR-PEP2-RR-PEP5-RR-PEP3-RR-PEP4 (QIRPIFSNRRRASLDSDPWVRRVYDYNCHVDLRRLLQAEAPRLRRDYSARWNEI) [TPV18]", "values": [{"measurement": "number of types of CTL epitope peptide specific CTLs induced", "setting": "[2]", "result": "no more than two CTLs induced"}]}
